Measurements from patent US20260374756A1, “HETEROCYCLIC COMPOUNDS AS INHIBITORS OF MONOACYLGLYCEROL LIPASE (MAGL)” (Hoffmann-La Roche Inc., priority 2022, published 2026).
Blank lines part the entries; values can stand above or below the compound they belong to.

Molecular target: T1, hMAGL (Homo sapiens, UniProt Q99685)
T1 sequence (Q99685 1-303): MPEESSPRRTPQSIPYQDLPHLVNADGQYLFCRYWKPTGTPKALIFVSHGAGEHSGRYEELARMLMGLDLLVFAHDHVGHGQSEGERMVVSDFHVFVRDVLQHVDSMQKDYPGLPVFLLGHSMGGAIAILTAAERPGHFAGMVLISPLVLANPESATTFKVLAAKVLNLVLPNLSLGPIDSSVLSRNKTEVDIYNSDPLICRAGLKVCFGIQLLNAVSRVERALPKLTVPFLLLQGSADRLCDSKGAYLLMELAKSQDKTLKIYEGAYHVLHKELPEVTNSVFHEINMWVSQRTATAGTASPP
Experiment: 2-AG assay: MAGL inhibition, hydrolysis of 2-arachidonoylglycerol to arachidonic acid followed by mass spectrometry
Assay type: biochemical
In short: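 Read-out is LC-MS/MS of arachidonic acid released from 2-arachidonoylglycerol (8 μM final), normalised to d8-arachidonic acid internal standard after acetonitrile quench. Enzyme […] and compound were pre-mixed 15 min, then reacted 30 min, both at RT, in Tris/EDTA buffer with 0.01% Tween-20 and 2.5% DMSO.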

SMILES: O=C(N1CC2(CC(n3cnc(C(F)(F)F)n3)C2)C1)N1CC2(CN(Cc3cn(CC(F)(F)F)nn3)C2)C1 [Example 107, [6-[[1-(2,2,2-trifluoroethyl)triazol-4-yl]methyl]-2,6-diazaspiro[3.3]heptan-2-yl]-[6-[3-(trifluoromethyl)-1,2,4-triazol-1-yl]-2-azaspiro[3.3]heptan-2-yl]methanone]
IC50: 2670 nM

SMILES: O=C(N1CC2(CC(Cn3cnc(C4(C(F)(F)F)CC4)n3)C2)C1)N1CC2(CC(c3cc(C4CC4)n[nH]3)C2)C1 [Example 74, [6-(3-cyclopropyl-1H-pyrazol-5-yl)-2-azaspiro[3.3]heptan-2-yl]-[6-[[3-[1-(trifluoromethyl)cyclopropyl]-1,2,4-triazol-1-yl]methyl]-2-azaspiro[3.3]heptan-2-yl]methanone]
IC50: 0.42 nM

SMILES: O=C(N1CC2(CC(Cc3nc(C(F)(F)F)c[nH]3)C2)C1)N1CC2(CC(n3cnc(C4(O)CC4)n3)C2)C1 [Example 337, [6-[3-(1-hydroxycyclopropyl)-1,2,4-triazol-1-yl]-2-azaspiro[3.3]heptan-2-yl]-[6-[[4-(trifluoromethyl)-1H-imidazol-2-yl]methyl]-2-azaspiro [3.3]heptan-2-yl]methanone]
IC50: 6.12 nM

SMILES: CC(F)(F)c1noc(CN2CC3(C2)CN(C(=O)N2CC4(CC(n5cnc(C(F)(F)F)n5)C4)C2)C3)n1 [Example 258, [6-[[3-(1,1-difluoroethyl)-1,2,4-oxadiazol-5-yl]methyl]-2,6-diazaspiro[3.3]heptan-2-yl]-[6-[3-(trifluoromethyl)-1,2,4-triazol-1-yl]-2-azaspiro[3.3]heptan-2-yl]methanone]
IC50: 53 nM

SMILES: O=C(N1CC2(CC(n3cnc(C4(O)CC4)n3)C2)C1)N1CC2(CN(Cc3nc(C4CC4)ns3)C2)C1 [Example 45, [6-[(3-cyclopropyl-1,2,4-thiadiazol-5-yl)methyl]-2,6-diazaspiro[3.3]heptan-2-yl]-[6-[3-(1-hydroxycyclopropyl)-1,2,4-triazol-1-yl]-2-azaspiro[3.3]heptan-2-yl]methanone]
IC50: 118 nM

SMILES: N#Cc1cnn(CC2CC3(C2)CN(C(=O)N2CC4(CC(c5cc(C6CC6)n[nH]5)C4)C2)C3)c1 [Example 37]
IC50: 4.3 nM

SMILES: CCc1nsc(CN2CC3(C2)CN(C(=O)N2CC4(CC(n5cnc(C6CC6)n5)C4)C2)C3)n1 [Example 287, [6-(3-cyclopropyl-1,2,4-triazol-1-yl)-2-azaspiro[3.3]heptan-2-yl]-[6-[(3-ethyl-1,2,4-thiadiazol-5-yl)methyl]-2,6-diazaspiro[3.3]heptan-2-yl]methanone]
IC50: 135 nM

SMILES: O=C(N1CC2(CC(n3cnc(C4CC4)n3)C2)C1)N1CC2(CN(Cc3cnn(CC(F)(F)F)n3)C2)C1 [Example 196, [6-(3-cyclopropyl-1,2,4-triazol-1-yl)-2-azaspiro[3.3]heptan-2-yl]-[6-[[2-(2,2,2-trifluoroethyl)triazol-4-yl]methyl]-2,6-diazaspiro[3.3]heptan-2-yl]methanone]
IC50: 79 nM

SMILES: O=C(N1CC2(CCN(Cc3cc(C(F)(F)F)no3)CC2)C1)N1CC2(CC(n3cnc(C4(O)CC4)n3)C2)C1 [Example 18, [6-[3-(1-hydroxycyclopropyl)-1,2,4-triazol-1-yl]-2-azaspiro[3.3]heptan-2-yl]-[7-[[3-(trifluoromethyl)isoxazol-5-yl]methyl]-2,7-diazaspiro[3.5]nonan-2-yl]methanone]
IC50: 334 nM

SMILES: Cn1ncc(C(F)(F)F)c1CN1CC2(C1)CN(C(=O)N1CC3(CC(n4cnc(C5CC5)n4)C3)C1)C2 [Example 159, [6-(3-cyclopropyl-1,2,4-triazol-1-yl)-2-azaspiro[3.3]heptan-2-yl]-[6-[[2-methyl-4-(trifluoromethyl)pyrazol-3-yl]methyl]-2,6-diazaspiro[3.3]heptan-2-yl]methanone]
IC50: 2.2 nM

SMILES: O=C(N1CC2(CC(n3cnc(C4CC4)n3)C2)C1)N1CC2(CN(Cc3coc(C(F)(F)F)n3)C2)C1 [Example 214, [6-(3-cyclopropyl-1,2,4-triazol-1-yl)-2-azaspiro[3.3]heptan-2-yl]-[6-[[2-(trifluoromethyl)oxazol-4-yl]methyl]-2,6-diazaspiro[3.3]heptan-2-yl]methanone]
IC50: 28.5 nM

SMILES: Cn1nc(CC2CC3(C2)CN(C(=O)N2CC4(CC(n5cnc(C6(O)CC6)n5)C4)C2)C3)c(C(F)(F)F)n1 [Example 137]
IC50: 2.4 nM

SMILES: Cn1nc(CC2CC3(C2)CN(C(=O)N2CC4(CC(n5cnc(C6(O)CC6)n5)C4)C2)C3)cc1C(F)(F)F [Example 2, [6-[3-(1-hydroxycyclopropyl)-1,2,4-triazol-1-yl]-2-azaspiro[3.3]heptan-2-yl]-[6-[[1-methyl-5-(trifluoromethyl)pyrazol-3-yl]methyl]-2-azaspiro[3.3]heptan-2-yl]methanone]
IC50: 0.61 nM

SMILES: Cn1ccnc1CN1CC2(C1)CN(C(=O)N1CC3(CC(n4cnc(C5CC5)n4)C3)C1)C2 [Example 308, [6-(3-cyclopropyl-1,2,4-triazol-1-yl)-2-azaspiro[3.3]heptan-2-yl]-[6-[(1-methylimidazol-2-yl)methyl]-2,6-diazaspiro[3.3]heptan-2-yl]methanone]
IC50: 110 nM

SMILES: Cn1cc(OC2CC3(C2)CN(C(=O)N2CC4(CC(n5cnc(C6(O)CC6)n5)C4)C2)C3)cn1 [Example 88, [6-[3-(1-hydroxycyclopropyl)-1,2,4-triazol-1-yl]-2-azaspiro[3.3]heptan-2-yl]-[6-(1-methylpyrazol-4-yl)oxy-2-azaspiro[3.3]heptan-2-yl]methanone]
IC50: 1370 nM

The next lines start with the values.

IC50: 0.87 nM
SMILES: Cn1ncc(C(F)(F)F)c1CN1CCC2(CC1)CN(C(=O)N1CC3(CC(n4cnc(C(F)(F)F)n4)C3)C1)C2 [Example 65, [7-[[2-methyl-4-(trifluoromethyl)pyrazol-3-yl]methyl]-2,7-diazaspiro[3.5]nonan-2-yl]-[6-[3-(trifluoromethyl)-1,2,4-triazol-1-yl]-2-azaspiro[3.3]heptan-2-yl]methanone]

IC50: 260 nM
SMILES: O=C(N1CC2(CC(n3cnc(C(F)(F)F)n3)C2)C1)N1CC2(CN(Cc3ncc(C(F)(F)F)[nH]3)C2)C1 [Example 231, [6-[[5-(trifluoromethyl)-1H-imidazol-2-yl]methyl]-2,6-diazaspiro[3.3]heptan-2-yl]-[6-[3-(trifluoromethyl)-1,2,4-triazol-1-yl]-2-azaspiro[3.3]heptan-2-yl]methanone]

IC50: 96.5 nM
SMILES: Cn1nnc(CN2CC3(C2)CN(C(=O)N2CC4(CC(n5cnc(C(F)(F)F)n5)C4)C2)C3)c1C(F)(F)F [Example 243, [6-[[1-methyl-5-(trifluoromethyl)triazol-4-yl]methyl]-2,6-diazaspiro[3.3]heptan-2-yl]-[6-[3-(trifluoromethyl)-1,2,4-triazol-1-yl]-2-azaspiro[3.3]heptan-2-yl]methanone]

IC50: 0.14 nM
SMILES: O=C(N1CC2(CC(Cc3cn(C4CC4)nc3C(F)(F)F)C2)C1)N1CC2(CC(n3cnc(C4CC4)n3)C2)C1 [Example 62, [6-(3-cyclopropyl-1,2,4-triazol-1-yl)-2-azaspiro[3.3]heptan-2-yl]-[6-[[1-cyclopropyl-3-(trifluoromethyl)pyrazol-4-yl]methyl]-2-azaspiro[3.3]heptan-2-yl]methanone]

IC50: 0.09 nM
SMILES: O=C(N1CC2(CC(Cc3cnn4ccc(C(F)(F)F)nc34)C2)C1)N1CC2(CC(n3cnc(C4CC4)n3)C2)C1 [Example 358, [6-(3-cyclopropyl-1,2,4-triazol-1-yl)-2-azaspiro[3.3]heptan-2-yl]-[6-[[5-(trifluoromethyl)pyrazolo[1,5-a]pyrimidin-3-yl]methyl]-2-azaspiro[3.3]heptan-2-yl]methanone]

IC50: 20.3 nM
SMILES: Cn1nc(C(F)(F)F)cc1CN1CC2(C1)CN(C(=O)N1CC3(CC(n4cnc(C(F)(F)F)n4)C3)C1)C2 [Example 166]

IC50: 1.77 nM
SMILES: O=C(N1CC2(CC(Cc3cn(CC(F)(F)F)nn3)C2)C1)N1CC2(CC(n3cnc(C4CC4)n3)C2)C1 [Example 347, [6-(3-cyclopropyl-1,2,4-triazol-1-yl)-2-azaspiro[3.3]heptan-2-yl]-[6-[[1-(2,2,2-trifluoroethyl)triazol-4-yl]methyl]-2-azaspiro[3.3]heptan-2-yl]methanone]

IC50: 0.26 nM
SMILES: O=C(N1CC2(CC(Cc3cn(C4CC4)nc3C(F)(F)F)C2)C1)N1CC2(CC(n3cnc(C(F)(F)F)n3)C2)C1 [Example 61, [6-[[1-cyclopropyl-3-(trifluoromethyl)pyrazol-4-yl]methyl]-2-azaspiro[3.3]heptan-2-yl]-[6-[3-(trifluoromethyl)-1,2,4-triazol-1-yl]-2-azaspiro[3.3]heptan-2-yl]methanone]

IC50: 3.09 nM
SMILES: Cc1cc(C(F)(F)F)n(CC2CC3(C2)CN(C(=O)N2CC4(CC(n5cnc(C6CC6)n5)C4)C2)C3)n1 [Example 72, [6-(3-cyclopropyl-1,2,4-triazol-1-yl)-2-azaspiro[3.3]heptan-2-yl]-[6-[[3-methyl-5-(trifluoromethyl)pyrazol-1-yl]methyl]-2-azaspiro[3.3]heptan-2-yl]methanone]

IC50: 15.3 nM
SMILES: O=C(N1CC2(CC(n3cnc(C(F)(F)F)n3)C2)C1)N1CC2(CN(Cc3cc(C(F)(F)F)ns3)C2)C1 [Example 153, [6-[[3-(trifluoromethyl)isothiazol-5-yl]methyl]-2,6-diazaspiro[3.3]heptan-2-yl]-[6-[3-(trifluoromethyl)-1,2,4-triazol-1-yl]-2-azaspiro[3.3]heptan-2-yl]methanone]

IC50: 8.89 nM
SMILES: CCn1nc(C(F)(F)F)cc1CN1CC2(C1)CN(C(=O)N1CC3(CC(n4cnc(C(F)(F)F)n4)C3)C1)C2 [Example 169]

IC50: 0.18 nM
SMILES: O=C(N1CC2(CC(Cc3nc(C(F)(F)F)ns3)C2)C1)N1CC2(CC(n3cnc(C4CC4)n3)C2)C1 [Example 16]
